The record followed here is US5447954A, “Phenylderivate as inhibitors of ATP citrate lyase” (SmithKline Beecham p.l.c., priority 1992, dated 1995).

The structures appear in SMILES notation. Structures can show the parent of a compound that is named as a salt. Where two headings read alike, the source gives them in different places.

One assay concerns the target T1, rat ATP citrate lyase (Rattus norvegicus, UniProt P16638).
T1 construct: prior to removal of the livers; ATP Citrate lyase was prepared according to the method of Wraight et al; from tissue; host or cells: liver of male Wistar rats (fasted, then fed a high carbohydrate diet)
T1 sequence (P16638 1-1100): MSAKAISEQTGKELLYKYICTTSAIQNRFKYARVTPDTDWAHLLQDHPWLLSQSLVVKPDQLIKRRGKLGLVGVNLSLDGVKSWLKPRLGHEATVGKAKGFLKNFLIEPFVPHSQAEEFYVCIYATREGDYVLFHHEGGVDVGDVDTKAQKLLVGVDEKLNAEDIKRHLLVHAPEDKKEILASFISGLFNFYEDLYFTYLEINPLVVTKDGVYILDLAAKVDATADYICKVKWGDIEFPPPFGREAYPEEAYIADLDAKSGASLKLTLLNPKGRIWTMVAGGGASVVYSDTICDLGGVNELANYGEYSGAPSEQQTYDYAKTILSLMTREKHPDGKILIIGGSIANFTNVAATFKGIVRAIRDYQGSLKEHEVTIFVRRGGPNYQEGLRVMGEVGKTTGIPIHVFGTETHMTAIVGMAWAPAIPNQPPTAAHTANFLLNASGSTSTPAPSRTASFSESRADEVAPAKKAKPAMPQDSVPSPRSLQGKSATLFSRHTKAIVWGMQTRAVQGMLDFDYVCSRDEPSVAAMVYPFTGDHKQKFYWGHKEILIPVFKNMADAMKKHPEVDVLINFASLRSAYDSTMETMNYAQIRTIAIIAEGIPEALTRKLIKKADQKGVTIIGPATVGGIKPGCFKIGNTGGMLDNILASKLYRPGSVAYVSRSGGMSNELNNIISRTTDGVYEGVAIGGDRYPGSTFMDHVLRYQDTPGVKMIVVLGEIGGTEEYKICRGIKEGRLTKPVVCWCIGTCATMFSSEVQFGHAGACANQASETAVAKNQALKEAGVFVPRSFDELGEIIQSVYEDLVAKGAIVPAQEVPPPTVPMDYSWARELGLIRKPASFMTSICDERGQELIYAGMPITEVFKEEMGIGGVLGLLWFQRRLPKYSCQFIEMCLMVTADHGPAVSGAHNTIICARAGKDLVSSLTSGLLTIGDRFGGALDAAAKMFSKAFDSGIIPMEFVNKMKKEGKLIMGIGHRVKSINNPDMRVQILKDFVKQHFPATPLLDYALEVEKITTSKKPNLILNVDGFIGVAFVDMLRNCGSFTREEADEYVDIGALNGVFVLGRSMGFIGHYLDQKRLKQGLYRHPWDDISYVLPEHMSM
Nature of the assay: Assay of ATP Citrate lyase in the presence of inhibitors (rat enzyme). Format: biochemical. Particulars: 100 μM citrate, pH 8.0, 25° C. As to the method: 1. RAT ATP CITRATE LYASE (ACL) ASSAY
Purification of ATP Citrate lyase-human and rat enzymes
Male Wistar rats were fasted for 24 h, then fed on a high carbohydrate diet for 72 h prior to removal of the livers. ATP Citrate lyase was prepared according to the method of Wraight et al (Anal. Biochem., 1985, 144, 604-609) with modifications for large scale purification according to Wells (Eur. J. Biochem., 1991, 199, 163-168). Protein obtained by this method was pure as judged by SDS-PAGE.
Assay of ATP Citrate lyase in the presence of inhibitors
(§1) ATP Citrate lyase activity was assayed at 25° C. by reducing the oxaloacetate produced with malate dehydrogenase and NADH while monitoring at 340 nm using a Beckman DU50 spectrophotometer (according to the method of Linnet al (J. Biol. Chem., 1979, 254, 1691-1698)). Briefly, ATP citrate lyase (human or rat) was added to a 1 ml cuvette containing 50 mM Tris/HCl, pH=8.0, 0.2 mM NADH, 10 mM MgCl2, 10 mM KCl, 5 mM ATP, 200 μM coenzyme A, 10 mM dithiothreitol and malate dehydrogenase. An aqueous solution of inhibitor was added (for inhibitors which were insoluble in water, a stock solution was prepared in DMSO. However the final DMSO concentration in the cuvette was not allowed to exceed 1%.). Finally, tripotassium citrate was added to 100 μM final. This is Km for citrate (Wells et al (Eur. J. Biochem., 1992, 204, 249-255) and Houston et al (Biochim. Biophys. Acta, 1985, 844, 233-239)). Data analysis was performed using the curve fitting package Enzfitter (Elsevier Biosoft). For competitive inhibitors data was fitted to the equation
where v is the observed rate and I is the concentration of inhibitor added. Thus the dissociation constant Ki for the inhibitor could be found.

The next assay relates to HepG2 cells. In words: Effect of compounds on cholesterol (CL) and fatty acid (FA) synthesis in HepG2 cells. It is filed as cell-based. The following applies: Homo sapiens; for activity at 1000 µM: Conc. 1000 μM; for activity at 30 µM: Conc. 30 μM; for activity at 3 µM: Conc. 3 μM; for activity at 10 µM: Conc. 10 μM. As for the experimental part: 2. Measurement of effect of compounds on cholesterol (CL) and fatty acid (FA) synthesis in HepG2 Cells HepG2 cells were cultured in 24-well cell culture plates in DMEM (Dulbecco's Modified Eagle's Medium) containing Hepes (20 mM), bicarbonate (10 mM), glutamine (2 mM) and foetal calf serum (10% w/v). Once the cells had grown to between 80% and 90% confluence, the medium was replaced by DMEM without the addition of foetal calf serum and the cells incubated overnight. The rates of cholesterol and fatty acid synthesis were then measured by the addition of ^3 H2 O, to a specific radioactivity of 71 mCi/mmol, for the final 90 min of the incubation. Vehicle or test compound were added to the medium either 1.5 or 14.5 hr prior to the addition of ^3 H2 O to give the final desired concentration. Incubations were terminated and the rates of cholesterol and fatty acid synthesis determined from the amounts of ^3 H incorporated into cellular cholesterol and fatty acids as described previously (Berkhout et al.; Biochem J., 1990, 272, 181).

For assay [1], the system named is Sprague Dawley rat plasma cholesterol and triglyceride levels. Nature of the assay: Measurement of hyperlipidaemic activity in rats: plasma cholesterol and triglyceride levels. It is filed as in vivo. The following applies: in diet at 0.125% (w:w) for 7 days. As to the method:
(§2) 3. Measurement of hyperlipidaemic activity in rats and dogs
The compound of example 2 was administered to Spmgue Dawley rats in their diet at a concentration of 0.125% (w:w) for 7 days.

Assay [2] has as its system Beagle dog plasma cholesterol and triglyceride levels. In words: Measurement of hyperlipidaemic activity in dogs: plasma cholesterol and triglyceride levels. Format: in vivo. The following applies: male Beagle dogs; 25 mg/kg/day for 2 weeks. As for the experimental part: as §2
25 (b) Dog The compound of example 2 was administered to male Beagle dogs at a level of 25 mg/kg/day for 2 weeks.

A further assay has as its target T2, human ATP citrate lyase (Homo sapiens, UniProt P53396).
T2 construct: made in house
T2 sequence (P53396 1-1101): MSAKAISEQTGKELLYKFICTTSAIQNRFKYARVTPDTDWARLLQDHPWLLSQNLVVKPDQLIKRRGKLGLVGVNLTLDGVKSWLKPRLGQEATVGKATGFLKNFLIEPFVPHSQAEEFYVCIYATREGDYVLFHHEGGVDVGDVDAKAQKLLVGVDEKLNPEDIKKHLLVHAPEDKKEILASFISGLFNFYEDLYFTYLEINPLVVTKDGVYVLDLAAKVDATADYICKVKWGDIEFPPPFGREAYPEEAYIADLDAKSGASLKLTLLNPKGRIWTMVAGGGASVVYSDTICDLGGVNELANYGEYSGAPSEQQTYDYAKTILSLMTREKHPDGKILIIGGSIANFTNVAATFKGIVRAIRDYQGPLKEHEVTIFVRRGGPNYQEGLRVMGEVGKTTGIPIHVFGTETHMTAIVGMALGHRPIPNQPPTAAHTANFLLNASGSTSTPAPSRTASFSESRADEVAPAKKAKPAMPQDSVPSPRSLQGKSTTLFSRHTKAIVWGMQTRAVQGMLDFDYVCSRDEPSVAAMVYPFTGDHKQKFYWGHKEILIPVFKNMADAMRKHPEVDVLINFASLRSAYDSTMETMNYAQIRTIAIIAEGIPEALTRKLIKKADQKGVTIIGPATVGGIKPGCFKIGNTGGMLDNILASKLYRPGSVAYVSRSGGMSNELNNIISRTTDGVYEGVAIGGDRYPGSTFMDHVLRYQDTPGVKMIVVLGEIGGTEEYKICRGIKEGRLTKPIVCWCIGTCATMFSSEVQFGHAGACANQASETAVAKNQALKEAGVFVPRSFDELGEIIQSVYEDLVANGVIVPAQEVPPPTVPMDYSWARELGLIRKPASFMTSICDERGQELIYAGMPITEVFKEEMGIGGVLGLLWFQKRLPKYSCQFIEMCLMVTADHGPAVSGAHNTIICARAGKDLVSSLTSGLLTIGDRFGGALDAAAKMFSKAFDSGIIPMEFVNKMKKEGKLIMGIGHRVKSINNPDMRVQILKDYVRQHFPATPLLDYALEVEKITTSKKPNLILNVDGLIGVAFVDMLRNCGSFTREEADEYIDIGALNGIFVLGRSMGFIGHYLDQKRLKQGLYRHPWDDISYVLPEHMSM
In words: Assay of ATP Citrate lyase in the presence of inhibitors (human enzyme). Format: biochemical. Particulars: 100 μM citrate, pH 8.0, 25° C. As for the experimental part: as §1, with “Purification of ATP Citrate lyase-human and rat enzymes (ii) human enzyme Human ATP citrate lyase was prepared as described in European Journal of Biochemistry, 1992, 204, 491-99, with modifications for large scale purification according to Wells as referred to above. Protein obtained by this method was pure as judged by SDS-PAGE. Assay of ATP Citrate lyase in the presence of inhibitors ATP Citrate” for “ATP Citrate”, “method of […] al (J.” for “method of Linnet al (J.”, “(Elsevier Biosoft). […]” for “(Elsevier Biosoft). For competitive inhibitors data was fitted to the equation”

The term Ki denotes the dissociation constant of the complex between target and ligand, obtained from inhibition or displacement. Take `O=C(O)C[C@](O)(C[C@@H](O)CCCCCCc1ccc(Cl)cc1Cl)C(=O)O` (relative stereo) [Example 1, ±(3R*, 5S*) 3-Carboxy-11-(2,4-dichlorophenyl)-3,5-dihydroxyundecanoic acid, disodium salt]: the Ki on rat ATP citrate lyase is 0.8 µM. Further, the figures for the activity at 1000 µM with HepG2 cells (read-out: CL synthesis) and in the assay with HepG2 cells (read-out: FA synthesis) were 80 ± 6% and 123 ± 3%, respectively.
For the compound `O=C(O)C[C@]1(O)C[C@H](CCCCCCc2ccc(Cl)cc2Cl)OC1=O` (relative stereo) [Example 2, ±(3R*, 5S*) 3-Carboxymethyl-5-[6-(2,4-dichlorophenyl)hexyl]3-hydroxytetrahydrofuran-2-one], the figures for the “reduction of plasma cholesterol levels” value in assay [1] and in assay [2] were 30% and 20-25%, respectively. For the same compound, the “reduction of plasma triglyceride levels” value in assay [1] is 64%; in assay [2] it was 20-25%. Further, the “activity against ATP citrate lyase (rat)” value at rat ATP citrate lyase is “inactive”. Further, the activity at 30 µM was 8 ± 3% in the assay with HepG2 cells (read-out: CL synthesis) and 32 ± 3% in the assay on HepG2 cells (read-out: FA synthesis).
With `O=C(O)[C@H](O)[C@@]1(O)C[C@@H](CCCCCCc2ccc(Cl)cc2Cl)OC1=O` (relative stereo) [Example 11, ±(1'R*,3S*,5R*) 3-[Carboxy(hydroxy)methyl]-5-[6-(2,4-dichlorophenyl)hexyl]-3-hydroxytetrahydrofuran-2-one], in the assay on HepG2 cells (read-out: CL synthesis), the activity at 3 µM was 69 ± 13% and the activity at 10 µM came to 86 ± 29%. Moreover, in the assay on HepG2 cells (read-out: FA synthesis), the activity at 3 µM worked out at 74 ± 11% and the activity at 10 µM was 76 ± 13%.
On to `O=C(O)C[C@](O)(C[C@@H](O)CCCCCCc1ccc(Cl)cc1Cl)C(=O)O` (single isomer, unassigned) [Example 18, (+) (3R*,5S*) 3-Carboxy-11-(2,4-dichlorophenyl)-3,5-dihydroxyundecanoic acid, disodium salt], for which the Ki worked out at 0.7 µM on rat ATP citrate lyase and 0.76 µM at human ATP citrate lyase.
With `O=C(O)C[C@](O)(C[C@@H](O)CCCCCCc1ccc(Cl)cc1Cl)C(=O)O` (single isomer, unassigned) [Example 20, (-) (3R*,5S*) 3-Carboxy-11-(2 4-dichlorophenyl)-3 5-dihydroxyundecanoic acid, disodium salt], the Ki amounted to 0.7 µM at rat ATP citrate lyase and 0.69 µM at human ATP citrate lyase.
